Source: ChEMBL document CHEMBL2086254, “Synthesis and identification of novel indolo[2,3-a]pyrimido[5,4-c]carbazoles as a new class of anti-cancer agents” (Eur J Med Chem, 2012)

Assays:
Format in all cases: functional
[1] = system: RXF 393; experiment: Cytotoxicity against human RXF393 cells assessed as cell growth at 10 uM after 48 hrs by SRB assay relative to control; conditions: RXF 393, 48 h, read-out: Activity
[2] = system: PC-3; experiment: Cytotoxicity against human PC3 cells assessed as cell growth at 10 uM after 48 hrs by SRB assay relative to control; conditions: PC-3, 48 h, read-out: Activity
[3] = system: DU-145; experiment: Cytotoxicity against human DU145 cells assessed as cell growth at 10 uM after 48 hrs by SRB assay relative to control; conditions: DU-145, 48 h, read-out: Activity
[4] = Cytotoxicity against human Hs 578T cells assessed as cell growth at 10 uM after 48 hrs by SRB assay relative to control; conditions: read-out: Activity
[5] = system: BT-549; experiment: Cytotoxicity against human BT549 cells assessed as cell growth at 10 uM after 48 hrs by SRB assay relative to control; conditions: BT-549, 48 h, read-out: Activity
[6] = system: T47D; experiment: Cytotoxicity against human T47D cells assessed as cell growth at 10 uM after 48 hrs by SRB assay relative to control; conditions: read-out: Activity
[7] = system: MDA-MB-468; experiment: Cytotoxicity against human MDA-MB-468 cells assessed as cell growth at 10 uM after 48 hrs by SRB assay relative to control; conditions: MDA-MB-468, 48 h, read-out: Activity
[8] = system: EKVX; experiment: Cytotoxicity against human EKVX cells assessed as cell growth at 10 uM after 48 hrs by SRB assay relative to control; conditions: read-out: Activity
[9] = system: U-251; experiment: Cytotoxicity against human U251 cells assessed as cell growth at 10 uM after 48 hrs by SRB assay relative to control; conditions: U-251, 48 h, read-out: Activity
[10] = system: MDA-MB-435; experiment: Cytotoxicity against human MDA-MB-435 cells assessed cell growth at 10 uM after 48 hrs by SRB assay relative to control
[11] = system: IGROV-1; experiment: Cytotoxicity against human IGROV1 cells assessed as cell growth at 10 uM after 48 hrs by SRB assay relative to control; conditions: IGROV-1, 48 h, read-out: Activity
[12] = system: CAKI-1; experiment: Cytotoxicity against human Caki1 cells assessed as cell growth at 10 uM after 48 hrs by SRB assay relative to control; conditions: CAKI-1, 48 h, read-out: Activity
[13] = system: UO-31; experiment: Cytotoxicity against human UO31 cells assessed as cell growth at 10 uM after 48 hrs by SRB assay relative to control; conditions: UO-31, 48 h, read-out: Activity
[14] = system: MCF7; experiment: Cytotoxicity against human MCF7 cells assessed as cell growth at 10 uM after 48 hrs by SRB assay relative to control; conditions: MCF7, 48 h, read-out: Activity
[15] = system: HCT-116; experiment: Cytotoxicity against human HCT116 cells assessed as cell growth at 10 uM after 48 hrs by SRB assay relative to control; conditions: HCT-116, 48 h, read-out: Activity
[16] = system: SW-620; experiment: Cytotoxicity against human SW620 cells assessed as cell growth at 10 uM after 48 hrs by SRB assay relative to control; conditions: SW-620, 48 h, read-out: Activity
[17] = system: M14; experiment: Cytotoxicity against human M14 cells assessed as cell growth at 10 uM after 48 hrs by SRB assay relative to control; conditions: M14, 48 h, read-out: Activity
[18] = system: SK-MEL-2; experiment: Cytotoxicity against human SK-MEL-2 cells assessed as cell growth at 10 uM after 48 hrs by SRB assay relative to control; conditions: SK-MEL-2, 48 h, read-out: Activity
[19] = system: SK-OV-3; experiment: Cytotoxicity against human SKOV3 cells assessed as cell growth at 10 uM after 48 hrs by SRB assay relative to control; conditions: SK-OV-3, 48 h, read-out: Activity
[20] = system: ACHN; experiment: Cytotoxicity against human ACHN cells assessed as cell growth at 10 uM after 48 hrs by SRB assay relative to control; conditions: read-out: Activity
[21] = system: K562; experiment: Cytotoxicity against human K562 cells assessed as cell growth at 10 uM after 48 hrs by SRB assay relative to control; conditions: K562, 48 h, read-out: Activity
[22] = system: RPMI-8226; experiment: Cytotoxicity against human RPMI8226 cells assessed as cell growth at 10 uM after 48 hrs by SRB assay relative to control; conditions: RPMI-8226, 48 h, read-out: Activity
[23] = system: HOP-62; experiment: Cytotoxicity against human HOP62 cells assessed as cell growth at 10 uM after 48 hrs by SRB assay relative to control; conditions: HOP-62, 48 h, read-out: Activity
[24] = system: HCC 2998; experiment: Cytotoxicity against human HCC2998 cells assessed as cell growth at 10 uM after 48 hrs by SRB assay relative to control; conditions: HCC 2998, 48 h, read-out: Activity
[25] = system: HCT-15; experiment: Cytotoxicity against human HCT15 cells assessed as cell growth at 10 uM after 48 hrs by SRB assay relative to control; conditions: HCT-15, 48 h, read-out: Activity
[26] = system: SF-268; experiment: Cytotoxicity against human SF268 cells assessed as cell growth at 10 uM after 48 hrs by SRB assay relative to control; conditions: SF-268, 48 h, read-out: Activity
[27] = system: SF-295; experiment: Cytotoxicity against human SF295 cells assessed as cell growth at 10 uM after 48 hrs by SRB assay relative to control; conditions: SF-295, 48 h, read-out: Activity
[28] = system: SF-539; experiment: Cytotoxicity against human SF539 cells assessed as cell growth at 10 uM after 48 hrs by SRB assay relative to control; conditions: SF-539, 48 h, read-out: Activity
[29] = system: SNB-19; experiment: Cytotoxicity against human SNB19 cells assessed as cell growth at 10 uM after 48 hrs by SRB assay relative to control; conditions: SNB-19, 48 h, read-out: Activity
[30] = system: LOX IMVI; experiment: Cytotoxicity against human LOXIMVI cells assessed as cell growth at 10 uM after 48 hrs by SRB assay relative to control; conditions: read-out: Activity
[31] = system: Malme-3M; experiment: Cytotoxicity against human MALME-3M cells assessed as cell growth at 10 uM after 48 hrs by SRB assay relative to control; conditions: read-out: Activity
[32] = system: SK-MEL-28; experiment: Cytotoxicity against human SK-MEL-28 cells assessed as cell growth at 10 uM after 48 hrs by SRB assay relative to control; conditions: SK-MEL-28, 48 h, read-out: Activity
[33] = system: UACC-257; experiment: Cytotoxicity against human UACC257 cells assessed as cell growth at 10 uM after 48 hrs by SRB assay relative to control; conditions: UACC-257, 48 h, read-out: Activity
[34] = system: OVCAR-3; experiment: Cytotoxicity against human OVCAR3 cells assessed as cell growth at 10 uM after 48 hrs by SRB assay relative to control; conditions: OVCAR-3, 48 h, read-out: Activity
[35] = system: OVCAR-8; experiment: Cytotoxicity against human OVCAR8 cells assessed as cell growth at 10 uM after 48 hrs by SRB assay relative to control; conditions: OVCAR-8, 48 h, read-out: Activity
[36] = system: NCI/ADR-RES; experiment: Cytotoxicity against human NCI/ADR-RES cells assessed as cell growth at 10 uM after 48 hrs by SRB assay relative to control; conditions: read-out: Activity

## Cn1cc(-c2[nH]c(=O)[nH]c(=O)c2-c2cn(C)c3ccccc23)c2ccccc21
[1]
  growth at 10 µM: 111%
[2]
  growth at 10 µM: 86.1%
[3]
  growth at 10 µM: 115%
[4]
  growth at 10 µM: 105%
[5]
  growth at 10 µM: 95.8%
[6]
  growth at 10 µM: 82.4%
[7]
  growth at 10 µM: 88.5%
[8]
  growth at 10 µM: 68.7%
[9]
  growth at 10 µM: 113%
[10]
  Activity: 73.39%
[11]
  growth at 10 µM: 62.2%
[12]
  growth at 10 µM: 68.6%
[13]
  growth at 10 µM: 75.8%
[14]
  growth at 10 µM: 60.1%
[15]
  growth at 10 µM: 91.7%
[16]
  growth at 10 µM: 88.8%
[17]
  growth at 10 µM: 89.8%
[18]
  growth at 10 µM: 118%
[19]
  growth at 10 µM: 96.8%
[20]
  growth at 10 µM: 92.5%
[21]
  growth at 10 µM: 93.8%
[22]
  growth at 10 µM: 98.9%
[23]
  growth at 10 µM: 83.3%
[24]
  growth at 10 µM: 109%
[25]
  growth at 10 µM: 95%
[26]
  growth at 10 µM: 106%
[27]
  growth at 10 µM: 97.1%
[28]
  growth at 10 µM: 111%
[29]
  growth at 10 µM: 109%
[30]
  growth at 10 µM: 104%
[31]
  growth at 10 µM: 98.6%
[32]
  growth at 10 µM: 103%
[33]
  growth at 10 µM: 82.1%
[34]
  growth at 10 µM: 97.3%
[35]
  growth at 10 µM: 98.1%
[36]
  growth at 10 µM: 103%

## Cn1cc(-c2[nH]c(=S)[nH]c(=O)c2-c2cn(C)c3ccccc23)c2ccccc21
[1]
  growth at 10 µM: 123%
[2]
  growth at 10 µM: 92.1%
[3]
  growth at 10 µM: 110%
[4]
  growth at 10 µM: 103%
[5]
  growth at 10 µM: 102%
[6]
  growth at 10 µM: 98.3%
[7]
  growth at 10 µM: 107%
[8]
  growth at 10 µM: 75%
[9]
  growth at 10 µM: 89%
[10]
  Activity: 77.23%
[11]
  growth at 10 µM: 75.7%
[12]
  growth at 10 µM: 82.4%
[13]
  growth at 10 µM: 75.8%
[14]
  growth at 10 µM: 68.2%
[15]
  growth at 10 µM: 98.8%
[16]
  growth at 10 µM: 98%
[17]
  growth at 10 µM: 106%
[18]
  growth at 10 µM: 111%
[19]
  growth at 10 µM: 100%
[20]
  growth at 10 µM: 95.5%
[21]
  growth at 10 µM: 87%
[22]
  growth at 10 µM: 91%
[23]
  growth at 10 µM: 92.3%
[24]
  growth at 10 µM: 113%
[25]
  growth at 10 µM: 95.2%
[26]
  growth at 10 µM: 106%
[27]
  growth at 10 µM: 94.2%
[28]
  growth at 10 µM: 99.1%
[29]
  growth at 10 µM: 105%
[30]
  growth at 10 µM: 92.2%
[31]
  growth at 10 µM: 99.5%
[32]
  growth at 10 µM: 104%
[33]
  growth at 10 µM: 94.2%
[34]
  growth at 10 µM: 98.7%
[35]
  growth at 10 µM: 102%
[36]
  growth at 10 µM: 101%

## Cn1cc(-c2c(-c3cn(C)c4ncccc34)nc(N)[nH]c2=O)c2ccccc21
[1]
  growth at 10 µM: 124%
[2]
  growth at 10 µM: 84.2%
[3]
  growth at 10 µM: 107%
[4]
  growth at 10 µM: 101%
[5]
  growth at 10 µM: 95.8%
[6]
  growth at 10 µM: 83%
[7]
  growth at 10 µM: 116%
[8]
  growth at 10 µM: 96.3%
[9]
  growth at 10 µM: 77.5%
[10]
  Activity: 98.77%
[11]
  growth at 10 µM: 87.1%
[12]
  growth at 10 µM: 90%
[13]
  growth at 10 µM: 79%
[14]
  growth at 10 µM: 86%
[15]
  growth at 10 µM: 98%
[16]
  growth at 10 µM: 97.5%
[17]
  growth at 10 µM: 103%
[18]
  growth at 10 µM: 105%
[19]
  growth at 10 µM: 98.3%
[20]
  growth at 10 µM: 87.6%
[21]
  growth at 10 µM: 95%
[22]
  growth at 10 µM: 85.1%
[23]
  growth at 10 µM: 91.5%
[24]
  growth at 10 µM: 109%
[25]
  growth at 10 µM: 103%
[26]
  growth at 10 µM: 101%
[27]
  growth at 10 µM: 98.2%
[28]
  growth at 10 µM: 104%
[29]
  growth at 10 µM: 111%
[30]
  growth at 10 µM: 99.9%
[31]
  growth at 10 µM: 107%
[32]
  growth at 10 µM: 11%
[33]
  growth at 10 µM: 103%
[34]
  growth at 10 µM: 99.7%
[35]
  growth at 10 µM: 95.8%
[36]
  growth at 10 µM: 101%
